Results taken from US20060052453A1, “Agent for treating Parkinson's disease comprising astrocyte function-improving agent as active ingredient” (priority 2000, published 2006).

What was measured:
[1] = tested on: Experimental Model of Parkinson's Disease Induced by Administration of MPTP; assay: Experimental model of Parkinson's disease induced by administration of MPTP; striatal dopamine and DOPAC content by HPLC; type: in vivo, mice; settings: for DOPAC content / Dopamine content: average ± standard deviation
Description: Improvement Effect of the Compound of the Present Invention in Experimental Model of Parkinson's Disease Induced by Administration of MPTP Male C57BL/6 mice (body weight: 20 to 28 g) were divided into groups each having 6 to 12 animals. Without anesthetizing, MPTP (10 mg/kg; 1-methyl-4-phenyl-1,2,3,6-tetrahydropyridine hydrochloride) was intraperitoneally administered to the mice 4 times at intervals of 1 hour (Brain Res., 824: 224-231 (1999)). To the models thus prepared, Compound A of the present invention ((R)-2-propyloctanoic acid) was administered after 1, 6, 24 and 48 hours. Three days after the final administration, striata of the mice were collected. After weighing, the striata were immediately frozen and stored. Then, dopamine content and DOPAC (3,4-dihydroxypyenylacetate) content were measured by HPLC in a conventional manner and evaluated. […] Dunnett's multiple comparison test (both sides) was performed on the basis of the data of the group with the administration of MPTP alone. The values in Table 1 are shown by the average±the standard deviation.

dogs = assay: Single intravenous dose toxicity in dogs; type: in vivo; settings: single dose of 100 mg/kg
Text: It has been confirmed that the compounds of the present invention represented by formula (I) have such low toxicity as being sufficiently safe in using as drugs.

[2] = Compound A alone 30 mg/kg, no MPTP, male C57BL/6 mice, striatum
[3] = MPTP (10 mg/kg i.p. x4) + compound A 3 mg/kg at 1, 6, 24 and 48 hours, striatum 3 days after final administration
[4] = MPTP (10 mg/kg i.p. x4) + compound A 10 mg/kg at 1, 6, 24 and 48 hours, striatum 3 days after final administration
[5] = MPTP (10 mg/kg i.p. x4) + compound A 30 mg/kg at 1, 6, 24 and 48 hours, striatum 3 days after final administration

Question: `CCCCCC[C@@H](CCC)C(=O)O` [Compound A, (R)-2-propyloctanoic acid] was tested. Which DOPAC content [1, 2] did it give?
Answer: Its DOPAC content is 2.97 ± 0.49 µg/g.

Question: And the Dopamine content [1, 2]?
Answer: The Dopamine content was 12.17 ± 1.41 µg/g.

Question: And the DOPAC content [1, 3]?
Answer: Its DOPAC content is 1.30 ± 0.31 µg/g.

Question: What about the Dopamine content [1, 3] of the same compound?
Answer: Its Dopamine content is 4.13 ± 1.48 µg/g.

Question: And the DOPAC content [1, 4]?
Answer: Its DOPAC content is 2.07 ± 0.77 µg/g.

Question: What about the Dopamine content [1, 4] of the same compound?
Answer: Its Dopamine content is 5.45 ± 2.00 µg/g.

Question: And the DOPAC content [1, 5]?
Answer: Its DOPAC content is 2.26 ± 0.52 µg/g.

Question: And the Dopamine content [1, 5]?
Answer: The Dopamine content was 6.75 ± 2.72 µg/g.

Question: What about the “Dopamine and DOPAC content compared with the group of MPTP alone” value ([1]; MPTP + compound groups vs MPTP alone, Dunnett's multiple comparison test) of the same compound?
Answer: The value was “significantly increased dopamine and DOPAC content depending on the dose”.

Question: And the “Adverse effect when used alone” value ([1]; compound alone in normal animals, data compared with control group)?
Answer: Its value is “no adverse effect”.

Question: And the Death (dogs)?
Answer: Its Death is “no case of death was observed”.
